Measurements as given in article PMC7126465 (Bioorganic & Medicinal Chemistry, 2017).

Assays:
HSV-1 (Kos) = conditions: read-out: EC50 (HEL) HSV-1 (Kos); HEL cells; ref Krecmerova et al. (Ref. [7]); cited from earlier work
Vaccinia virus = conditions: read-out: EC50 (HEL) Vaccinia virus; HEL cells; ref Krecmerova et al. (Ref. [7]); cited from earlier work
[1] = test system: human embryonic lung (HEL) cells; conditions: read-out: Cytotoxicity CC50, ref Krecmerova et al. (Ref. [7]); cited from earlier work
HCMV (AD-169) = conditions: read-out: EC50 (HEL) HCMV (AD-169); HEL cells; ref Krecmerova et al. (Ref. [7]); cited from earlier work
[2] = test system: herpesviruses (HSV, VZV, HCMV); assay: Anti-herpesvirus activity overall; assay type: cell-based; conditions: HEL cells
HSV-2 (G) = conditions: read-out: EC50 (HEL) HSV-2 (G); HEL cells; ref Krecmerova et al. (Ref. [7]); cited from earlier work
[3] = test system: human embryonic lung (HEL) cells; conditions: ref Krecmerova et al. (Ref. [7]); cited from earlier work
VZV TK− (07-1) = conditions: read-out: EC50 (HEL) VZV TK− (07-1); HEL cells; ref Krecmerova et al. (Ref. [7]); cited from earlier work
VZV TK+ (Oka) = conditions: read-out: EC50 (HEL) VZV TK+ (Oka); HEL cells; ref Krecmerova et al. (Ref. [7]); cited from earlier work
HCMV (Davis) = conditions: read-out: EC50 (HEL) HCMV (Davis); HEL cells; ref Krecmerova et al. (Ref. [7]); cited from earlier work

## Nc1ncn(CCOCP(=O)(O)O)c(=O)n1 [Compound 6, 1-[2-(phosphonomethoxy)ethyl]-5-azacytosine]
HSV-1 (Kos)
  EC50: 39 µM
Vaccinia virus
  EC50: > 398 µM
[1]
  CC50: > 200 µM
HCMV (AD-169)
  EC50: 195 µM
[2]
  Anti-herpesvirus activity (in words): marginal anti-herpesvirus activity
HSV-2 (G)
  EC50: 103 µM
[3]
  Cytotoxicity MCC: >398 µM
VZV TK− (07-1)
  EC50: 40 µM
VZV TK+ (Oka)
  EC50: 100 µM
HCMV (Davis)
  EC50: 147 µM
